The subject of series [1] is MDA-MB 231 cells. Briefly: Plasma membrane integrity assay (LDH). As to conditions: 0.1 to 30 µM, 24 and 48 h. The class given is cell-based, human. Here is the method: (§1) The human mammary gland/breast epithelial cell line MDA-MB 231 was obtained from the American Type Culture Collection (ATCC® HTB-26™) and this use was approved by the Ethics Committee for Animal Care and Use in Scientific Research from the Federal University of Rio de Janeiro. Cells were routinely grown in RPMI medium containing 10% foetal bovine serum (FBS), 1% L-glutamine and 1% penicillin-streptomycin, in a humidified 5% CO2 atmosphere at 37 °C. Cells were cultured up to 70–100% confluence and then some cultures were treated with the compounds at different concentrations for 24 or 48 h. All cell culture reagents were purchased from Invitrogen (São Paulo, Brazil).
To measure plasma membrane integrity, we assayed serum lactate dehydrogenase (LDH) levels and calculated percentages of LDH release to the medium. LDH activity was measured spectrophotometrically using a commercial kit (Doles, Goiás, Brazil). […] Then, 10 μl of NAD were added and absorbance intensities were measured in a microplate reader (FlexStation® 3 Reader, Molecular Devices) at 490 nm. The percentage of LDH release was calculated by ([LDH] sample ×100)/total [LDH]. […]
We also analysed the plasma membrane integrity by measuring the serum lactate dehydrogenase (LDH) levels in the culture medium to confirm the cell viability data. […]

Series [2] has as its system MDA-MB 231 cells. The series is described as follows: Cell-based scratch assay (cell migration). The arrangement: species or system human. The following applies: 10 or 30 μM, 24 h. As to the method: as §1
Cells were cultured in 24-well culture plates for 24 h up to 90–100% confluence. Scratched wound lines were created with the help of a 200 μl micropipette tip. […] Images were acquired with an Olympus DP71 digital camera (Olympus, Japan) and the wound area was quantified using Fiji software (based on ImageJ, http://imageJ.nih.gov/ij/) from three different experiments.
The functions of Rho-kinase include the regulation of cellular contraction, motility, morphology, polarity, division, and gene expression. Therefore, we performed a cell-based scratch assay followed by the quantification of the wounded area to analyse whether compounds 5b (LASSBio-2020) and 11 (LASSBio-2065) altered cell migration. […]

The target in a further series is T1, IKK-β (Homo sapiens, UniProt O14920).
T1 sequence (O14920 1-756): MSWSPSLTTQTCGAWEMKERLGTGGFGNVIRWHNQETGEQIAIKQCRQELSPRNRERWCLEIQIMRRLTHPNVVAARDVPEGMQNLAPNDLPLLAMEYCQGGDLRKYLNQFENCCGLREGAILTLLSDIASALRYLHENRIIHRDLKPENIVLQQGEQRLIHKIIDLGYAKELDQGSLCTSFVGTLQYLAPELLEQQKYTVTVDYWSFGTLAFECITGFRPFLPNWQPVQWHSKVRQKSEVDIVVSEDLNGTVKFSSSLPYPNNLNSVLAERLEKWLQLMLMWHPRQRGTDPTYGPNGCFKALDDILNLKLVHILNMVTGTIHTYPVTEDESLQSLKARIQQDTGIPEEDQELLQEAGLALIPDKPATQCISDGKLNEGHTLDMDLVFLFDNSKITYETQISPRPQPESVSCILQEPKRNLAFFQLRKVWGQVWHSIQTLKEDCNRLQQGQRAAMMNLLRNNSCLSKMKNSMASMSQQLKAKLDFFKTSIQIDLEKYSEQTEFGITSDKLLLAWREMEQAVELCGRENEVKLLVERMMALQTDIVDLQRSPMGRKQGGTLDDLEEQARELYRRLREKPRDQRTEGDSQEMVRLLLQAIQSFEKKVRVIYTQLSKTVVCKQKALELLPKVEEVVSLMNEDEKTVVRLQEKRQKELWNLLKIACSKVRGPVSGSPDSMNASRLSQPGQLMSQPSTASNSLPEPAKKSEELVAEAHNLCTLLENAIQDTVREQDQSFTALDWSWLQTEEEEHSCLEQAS
Briefly: IKK-β inhibition screening. As to conditions: screening concentration of 10 μM; data not shown. The class given is biochemical. The text has this: Furthermore, considering that 2 (LASSBio-1524) was used in the structural design of this new family of ROCK inhibitors we also investigated the ability of 5b (LASSBio-2020) and 11 (LASSBio-2065) to inhibit IKK-β.

Series [3] concerns the target T2, ROCK1 human recombinant enzyme (Homo sapiens, UniProt Q13464).
T2 construct: purchased EUROFINS-CEREP France (contract assay, study numbers 100033685 and 100040481); host or cells: Sf9 insect cells
The series is described as follows: ROCK1 inhibition assay (Eurofins-Cerep, phosphorylation of Ulight-RRRSLLE substrate). Type of series: biochemical. As to the method:
(§2) The analysis was performed using software developed at Cerep (Hill software) and GraphPad Prism® 5.0 (GraphPad Software, Inc., San Diego, CA) and validated through comparison with results generated using the SigmaPlot 4.0 software.
(§3) Prior to this assay, we evaluated the solubility of these compounds in water (buffer pH 7.4) to ensure that the inhibition percentages were not influenced by the precipitation of the compounds under test conditions.

A short description of series [4]: Chemical stability study (pH 2.0 and pH 7.4 buffers). The class given is physicochemical. The following applies: 37 °C. As to the method:
Two microliters ([…]) of a concentrated solution of the compound under examination (40 mM stock solution solubilized in DMSO) and 248 μL of acid (0.2 M potassium chloride and 0.2 M HCl; pH 2.0) or neutral (phosphate dibasic, pH 7.4) buffer were added to a 2 ml Eppendorf microtube. After vortexing, the mixture was placed in a water bath at 37 °C under vigorous stirring for 0, 30, 60, 120, and 240 min. After each reaction, 248 μL of basic buffer (phosphate buffer, pH 8.4) was added to neutralize the pH of the medium in the experiments using acidic buffer. The compound was extracted using 1 ml of acetonitrile followed by vigorous vortexing and freezing of the aqueous phase (−10 °C). The organic phase was separated, filtered, and analysed using an HPLC-PDA (acetonitrile/water […], 0.05% of TFA).
Due to the possible chemical instability of the imine functional group present in the N-sulphonylhydrazone framework, the stability profiles of compounds 5b (LASSBio-2020) and 11 (LASSBio-2065) were determined. The study was conducted under two conditions, pH 2.0 and pH 7.4, to mimic the acidic stomach and the neutral plasma environments, respectively. The compounds were examined in the presence of acid (pH 2) and neutral (pH 7.4) buffers with stirring for 240 min at a controlled temperature (37 °C).

Series [5] has as its target T3, ROCK2 human recombinant enzyme (Homo sapiens, UniProt O75116).
T3 construct: purchased EUROFINS-CEREP France (contract assay, study numbers 100033685 and 100040481); host or cells: Sf21 insect cells
Briefly: ROCK2 inhibition assay (Eurofins-Cerep, phosphorylation of Ulight-RRRSLLE substrate). The class given is biochemical. Here is the method:
as §2, §3

Entries after “also recorded” stand apart in the source; their conditions may differ.

T3 sequence (O75116 1-543 limits assumed): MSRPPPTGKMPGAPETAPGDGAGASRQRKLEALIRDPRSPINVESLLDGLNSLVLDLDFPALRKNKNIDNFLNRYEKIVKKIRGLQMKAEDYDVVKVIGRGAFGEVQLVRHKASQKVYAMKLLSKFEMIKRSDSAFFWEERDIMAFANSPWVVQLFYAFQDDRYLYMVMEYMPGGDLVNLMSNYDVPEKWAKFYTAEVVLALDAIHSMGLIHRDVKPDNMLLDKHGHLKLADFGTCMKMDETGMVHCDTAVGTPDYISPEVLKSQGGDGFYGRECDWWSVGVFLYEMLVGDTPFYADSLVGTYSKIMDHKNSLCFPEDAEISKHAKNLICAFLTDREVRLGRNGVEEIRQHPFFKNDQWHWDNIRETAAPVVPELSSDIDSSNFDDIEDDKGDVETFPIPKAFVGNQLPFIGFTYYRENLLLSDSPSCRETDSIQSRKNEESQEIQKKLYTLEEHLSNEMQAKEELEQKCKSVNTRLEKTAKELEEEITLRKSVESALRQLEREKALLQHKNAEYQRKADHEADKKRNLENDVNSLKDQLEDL
T2 sequence (Q13464 whole entry): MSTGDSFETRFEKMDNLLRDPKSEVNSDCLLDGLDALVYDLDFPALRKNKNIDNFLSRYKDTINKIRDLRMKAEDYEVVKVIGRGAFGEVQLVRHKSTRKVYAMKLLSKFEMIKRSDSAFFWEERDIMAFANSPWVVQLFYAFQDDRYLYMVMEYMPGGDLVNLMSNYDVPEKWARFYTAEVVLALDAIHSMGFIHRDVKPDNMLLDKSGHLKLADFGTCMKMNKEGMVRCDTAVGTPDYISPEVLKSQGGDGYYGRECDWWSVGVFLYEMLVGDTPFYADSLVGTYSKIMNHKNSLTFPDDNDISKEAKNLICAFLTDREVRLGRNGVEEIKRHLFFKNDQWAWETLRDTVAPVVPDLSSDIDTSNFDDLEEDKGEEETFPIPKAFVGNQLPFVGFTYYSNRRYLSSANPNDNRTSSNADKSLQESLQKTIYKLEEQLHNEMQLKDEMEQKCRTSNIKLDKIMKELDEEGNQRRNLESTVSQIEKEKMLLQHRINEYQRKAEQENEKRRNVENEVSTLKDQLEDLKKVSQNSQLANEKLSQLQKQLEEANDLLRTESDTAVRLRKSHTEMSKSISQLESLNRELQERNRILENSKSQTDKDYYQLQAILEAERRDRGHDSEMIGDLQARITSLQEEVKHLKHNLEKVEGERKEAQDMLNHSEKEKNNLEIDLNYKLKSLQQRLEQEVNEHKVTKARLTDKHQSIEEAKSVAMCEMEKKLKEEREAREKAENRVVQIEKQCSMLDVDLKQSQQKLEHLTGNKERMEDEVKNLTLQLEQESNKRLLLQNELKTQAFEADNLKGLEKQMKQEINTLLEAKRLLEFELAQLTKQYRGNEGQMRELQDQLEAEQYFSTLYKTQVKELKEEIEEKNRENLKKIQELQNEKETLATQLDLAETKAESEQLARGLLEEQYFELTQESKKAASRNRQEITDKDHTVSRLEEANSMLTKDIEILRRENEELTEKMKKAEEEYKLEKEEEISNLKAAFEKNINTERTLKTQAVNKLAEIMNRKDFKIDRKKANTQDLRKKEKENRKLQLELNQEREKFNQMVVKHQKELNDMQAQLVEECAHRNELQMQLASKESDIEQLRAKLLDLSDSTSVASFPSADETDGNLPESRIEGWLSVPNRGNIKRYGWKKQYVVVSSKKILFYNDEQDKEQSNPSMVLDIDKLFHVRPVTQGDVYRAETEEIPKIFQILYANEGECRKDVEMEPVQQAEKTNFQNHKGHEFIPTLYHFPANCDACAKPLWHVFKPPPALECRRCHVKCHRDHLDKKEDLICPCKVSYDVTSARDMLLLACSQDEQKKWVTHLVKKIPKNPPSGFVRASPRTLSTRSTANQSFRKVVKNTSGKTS

The term IC50 denotes the concentration that inhibits the measured activity by half. In general, melting point refers to the temperature of the solid-liquid transition. The compound `CN(/N=C/c1ccccc1)S(=O)(=O)c1cccc2cnccc12` [Compound 11, (E)-N′-benzylidene-N-methylisoquinoline-5-sulphonohydrazide] had a melting point of 108 °C. The “LDH levels in culture medium / cytotoxicity in LDH assay (result in words)” value in the series on MDA-MB 231 cells [1] is “not altered”. Also, in the series on MDA-MB 231 cells [2], the “effect on cell migration (result in words)” value was “inhibited MDA-MB 231 cell migration; also recorded: effective at inhibiting cell migration”. In addition, the “IKK-β inhibition (result in words)” value on IKK-β is reported as “none of these N-sulphonylhydrazone derivatives was able to inhibit IKK-β”. Moreover, the “decrease in the IC50 for ROCK1 relative to 5b” value in series [3] (N-methylated 11 versus 5b) is listed as “approximately 4 fold”. Also, the IC50 in series [3] (human recombinant ROCK1, five-point assay, 1 to 50 µM, mean of two experiments) came to 3.1 µM. Further, in series [4] (pH 2, after 30 min of incubation), the “recovery percentage under acidic conditions” value came to 88%. The “degradation in neutral medium” value in series [4] (pH 7.4, after 4 h) is “less than 20%”. Also, the “decrease in the IC50 for ROCK2 relative to 5b” value in series [5] (N-methylated 11 versus 5b) is given as roughly 1.8 fold. In series [5] (human recombinant ROCK2, five-point assay, 1 to 50 µM, mean of two experiments), the concentration for half-maximal inhibition (IC50) came to 3.8 µM.

These data come from paper PMC6060383, “Synthesis and pharmacological evaluation of novel isoquinoline N-sulphonylhydrazones designed as ROCK inhibitors” (Journal of Enzyme Inhibition and Medicinal Chemistry, 2018).
